Measured values reported in ChEMBL document CHEMBL1201862, “PubChem BioAssay data set” (2004).
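Results reflect a 48-hour exposure of cells in 96-well plates to compound at five concentrations. The concentration for 50% growth inhibition is given as GI50.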 Calls of active or inactive are those of the source. No stated cut-off is given here; in the data, active = GI50 up to about 1.1 µM and inactive = higher.

Experiments:
Test in all cases: DTP human tumour cell line panel, 48 h
[1] = tested on: A549
[2] = tested on: ACHN
[3] = tested on: CAKI-1
[4] = tested on: HCC 2998
[5] = tested on: HT-29
[6] = tested on: M14
[7] = tested on: MDA-N
[8] = tested on: MOLT-4
[9] = tested on: NCI-H226
[10] = tested on: NCI-H460
[11] = tested on: NCI-H522
[12] = tested on: NCI/ADR-RES
[13] = tested on: OVCAR-4
[14] = tested on: OVCAR-8
[15] = tested on: RPMI-8226
[16] = tested on: SK-MEL-28
[17] = tested on: SNB-75
[18] = tested on: SW-620
[19] = tested on: TK-10
[20] = tested on: UACC-257

Structure (SMILES) | GI50 [1] | GI50 [2] | GI50 [3] | GI50 [4] | GI50 [5] | GI50 [6] | GI50 [7] | GI50 [8] | GI50 [9] | GI50 [10] | GI50 [11] | GI50 [12] | GI50 [13] | GI50 [14] | GI50 [15] | GI50 [16] | GI50 [17] | GI50 [18] | GI50 [19] | GI50 [20]
COC(=O)c1c(C)cccc1C1CN=NC12Cc1ccc(C)c(C)c1C2=O (stereo not given) | 18.2 µM (inactive) | 27.2 µM (inactive) | > 100 µM (inactive) | 23.5 µM (inactive) | 25.7 µM (inactive) | 30.5 µM (inactive) | 45.2 µM (inactive) | 12.2 µM (inactive) | 44.6 µM (inactive) | 22.8 µM (inactive) | 12.9 µM (inactive) | 15.2 µM (inactive) | 24.9 µM (inactive) | 27.1 µM (inactive) | 9.84 µM (inactive) | > 100 µM (inactive) | 96.4 µM (inactive) | 33.4 µM (inactive) | > 100 µM (inactive) | 26.2 µM (inactive)
O=c1n(-c2ccc(Cl)c(Cl)c2)c(=O)n(-c2ccc(Cl)c(Cl)c2)c(=O)n1-c1ccc(Cl)c(Cl)c1 | 2.09 µM (inactive) | 2.39 µM (inactive) | 3.49 µM (inactive) | 2.2 µM (inactive) | 2.59 µM (inactive) | 3.2 µM (inactive) | 2.9 µM (inactive) | 1.87 µM (inactive) | 2.82 µM (inactive) | 1.59 µM (inactive) | 3.52 µM (inactive) | 3.1 µM (inactive) | 3.94 µM (inactive) | 3.54 µM (inactive) | 0.558 µM (active) | 4.16 µM (inactive) | 2.53 µM (inactive) | 3.15 µM (inactive) | 5.53 µM (inactive) | 0.736 µM (active)
c1ccc(Nc2nnc(Cn3ccc4ccccc43)s2)cc1 | 32.4 µM (inactive) | 39.8 µM (inactive) | 22.4 µM (inactive) | > 100 µM (inactive) | 57 µM (inactive) | 59.8 µM (inactive) | > 100 µM (inactive) | 23.1 µM (inactive) | 58.3 µM (inactive) | 47 µM (inactive) | 51.8 µM (inactive) | 34.6 µM (inactive) | 36.8 µM (inactive) | 64.6 µM (inactive) | 48.5 µM (inactive) | 80.5 µM (inactive) | 20.9 µM (inactive) | 87.3 µM (inactive) | 76.6 µM (inactive) | > 100 µM (inactive)
Cc1cccc(/N=N/C(=N\NC(=O)c2cc(Cl)ccc2O)c2ccc(N(CCC#N)CCC#N)cc2C)c1 | 26.5 µM (inactive) | 34.7 µM (inactive) | 30.6 µM (inactive) | 28.5 µM (inactive) | 28.3 µM (inactive) | 45.5 µM (inactive) | 55.6 µM (inactive) | 15.9 µM (inactive) | 36 µM (inactive) | 26.1 µM (inactive) | 20.8 µM (inactive) | 45.1 µM (inactive) | 22.1 µM (inactive) | 31.3 µM (inactive) | 14.9 µM (inactive) | 42.9 µM (inactive) | 37.9 µM (inactive) | 46.7 µM (inactive) | 20 µM (inactive) | 30.7 µM (inactive)
CCOC(=O)N1CCN(c2ccc3ccc(N)nc3n2)CC1 | > 100 µM (inactive) | > 100 µM (inactive) | > 100 µM (inactive) | > 100 µM (inactive) | 80.2 µM (inactive) | > 100 µM (inactive) | > 100 µM (inactive) | 74.1 µM (inactive) | > 100 µM (inactive) | 71.6 µM (inactive) | > 100 µM (inactive) | > 100 µM (inactive) | > 100 µM (inactive) | > 100 µM (inactive) | > 100 µM (inactive) | > 100 µM (inactive) | > 100 µM (inactive) | > 100 µM (inactive) | > 100 µM (inactive) | > 100 µM (inactive)
CSc1nc(NC2OC(COC(C)=O)C(OC(C)=O)C(OC(C)=O)C2OC(C)=O)c(/N=C\C=N/c2c(NC3OC(COC(C)=O)C(OC(C)=O)C(OC(C)=O)C3OC(C)=O)nc(SC)n(C)c2=O)c(=O)n1C (stereo not given) | > 100 µM (inactive) | 83.9 µM (inactive) | > 7.23 µM (inactive) | > 100 µM (inactive) | > 82.2 µM (inactive) | > 4.65 µM (inactive) | > 100 µM (inactive) | > 100 µM (inactive) | 54.1 µM (inactive) | > 100 µM (inactive) | > 100 µM (inactive) | > 100 µM (inactive) | > 100 µM (inactive) | 73.8 µM (inactive) | > 100 µM (inactive) | > 100 µM (inactive) | 12.2 µM (inactive) | > 100 µM (inactive) | 45.9 µM (inactive) | > 100 µM (inactive)
C=C1C(=O)O[C@@H]2C[C@]3(C)CC[C@]4(C)[C@H](CC[C@@H]5[C@@]6(C)CCC(=O)C(C)(C)[C@@H]6CC[C@]54C)[C@H]3[C@H]12 [OCHRACEOLIDE A] | 22.2 µM (inactive) | 11.9 µM (inactive) | 13.1 µM (inactive) | 19.2 µM (inactive) | 20.6 µM (inactive) | 14.6 µM (inactive) | 15.3 µM (inactive) | 2.31 µM (inactive) | 20 µM (inactive) | 18.5 µM (inactive) | 7.33 µM (inactive) | 22.2 µM (inactive) | 18.3 µM (inactive) | 13.7 µM (inactive) | 2.1 µM (inactive) | 18.9 µM (inactive) | 20.7 µM (inactive) | 11.6 µM (inactive) | 16 µM (inactive) | 14.6 µM (inactive)
Cc1nn(-c2ccccc2)c2nc3c(c(C)nn3-c3ccccc3)c(-c3ccccc3Br)c12 | 8.95 µM (inactive) | > 100 µM (inactive) | > 100 µM (inactive) | > 100 µM (inactive) | > 100 µM (inactive) | > 100 µM (inactive) | > 100 µM (inactive) | > 100 µM (inactive) | > 100 µM (inactive) | > 100 µM (inactive) | > 100 µM (inactive) | > 100 µM (inactive) | > 100 µM (inactive) | > 100 µM (inactive) | > 100 µM (inactive) | > 100 µM (inactive) | > 100 µM (inactive) | > 100 µM (inactive) | > 100 µM (inactive) | > 100 µM (inactive)
Cc1ccc(-c2c(C#N)c(-c3ccccc3)n(NS(=O)(=O)c3ccc(C)cc3)c(=O)c2C#N)cc1 | 55.8 µM (inactive) | 38 µM (inactive) | 71.1 µM (inactive) | 47.4 µM (inactive) | 69.2 µM (inactive) | 74.1 µM (inactive) | 71.8 µM (inactive) | 19.8 µM (inactive) | 74.3 µM (inactive) | 34.3 µM (inactive) | 39.2 µM (inactive) | 96.4 µM (inactive) | 43.5 µM (inactive) | 41.9 µM (inactive) | 8.36 µM (inactive) | 52.1 µM (inactive) | 92.5 µM (inactive) | 40.6 µM (inactive) | 55.3 µM (inactive) | > 100 µM (inactive)
Cc1ccc(/N=C2/SC(c3ccc(C)cc3)(c3ccc(C)cc3)c3ccccc32)cc1 | > 100 µM (inactive) | > 100 µM (inactive) | > 100 µM (inactive) | > 100 µM (inactive) | > 100 µM (inactive) | > 100 µM (inactive) | > 100 µM (inactive) | > 100 µM (inactive) | > 100 µM (inactive) | > 100 µM (inactive) | > 100 µM (inactive) | > 100 µM (inactive) | > 100 µM (inactive) | > 100 µM (inactive) | > 100 µM (inactive) | > 100 µM (inactive) | > 100 µM (inactive) | > 100 µM (inactive) | > 100 µM (inactive) | > 100 µM (inactive)
COc1ccc2nc(N/N=C/C(C)=N/Nc3cc(C)c4cc(OC)ccc4n3)cc(C)c2c1 | 19.7 µM (inactive) | 26.7 µM (inactive) | 49.4 µM (inactive) | 20.1 µM (inactive) | 12.7 µM (inactive) | 39.1 µM (inactive) | 23.7 µM (inactive) | 21.2 µM (inactive) | 45.6 µM (inactive) | 14.7 µM (inactive) | 20.3 µM (inactive) | 22 µM (inactive) | 18.5 µM (inactive) | 19.1 µM (inactive) | 7.33 µM (inactive) | 35.2 µM (inactive) | 21.9 µM (inactive) | 17 µM (inactive) | 30.5 µM (inactive) | 58.5 µM (inactive)
O=C1NN(c2ccccc2)C(=O)C2C3c4ccccc4C(c4ccccc43)C12 (stereo not given) | > 100 µM (inactive) | > 100 µM (inactive) | > 100 µM (inactive) | 6.64 µM (inactive) | 32.7 µM (inactive) | > 100 µM (inactive) | > 100 µM (inactive) | 6.22 µM (inactive) | > 100 µM (inactive) | > 100 µM (inactive) | 49.1 µM (inactive) | > 100 µM (inactive) | 60 µM (inactive) | > 100 µM (inactive) | > 100 µM (inactive) | > 100 µM (inactive) | 26.1 µM (inactive) | > 100 µM (inactive) | > 100 µM (inactive) | 27.6 µM (inactive)
